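Step 1: Grow cells in 96-well plates. Step 2: Expose to compound for 48 hours at 5 concentrations. Step 3: Interpolate endpoints linearly; if unreached, use highest concentration. TGI marks complete inhibition of growth.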 Bounds are passed on as bounds.

One test concerns SF-539 CNS. The test can be described thus: NCI anticancer screen, dose series, 48 h.
As for `CCC(CC)NC1=C(NC(C)=O)C(=O)c2ccccc2C1=O`, the TGI is more than 50 µM.

Turning to `COc1ccc(-c2c(C(C)=O)c(-c3ccccc3)n(C3OC(CO)C(O)C(O)C3O)c(=S)c2C#N)cc1` (stereo not drawn), the TGI was more than 100 µM.

In turn, `CCCCCCCC(CC(=O)NC(CO)C(=O)NC(CO)CC(C)C)OC(=O)CC(CCCCCCC)OC(=O)CC(CCCCCCC)OC1OC(C)C(O)C(OC2OC(C)C(OC(C)=O)C(O)C2O)C1O` (stereo not drawn) came in with a TGI of 23.4 µM.

The compound `O=C1C2=Cc3ccccc3OC2(O)Oc2cc3ccccc3cc21` (stereo not drawn) registered a TGI of 79.2 µM.

Regarding `CC1(c2cccc(C3CC4(CCC3=O)OCCCCO4)c2)OCCO1` (stereo not drawn), the TGI was more than 100 µM.

The next test has as its system 786-0 renal. The test is described as follows: NCI anticancer screen, dose series, 48 h.
`CC1(C)OCN(c2ccc(N3CCOCC3)cc2)Cn2c1nc1ccccc12` registered a TGI of more than 100 µM.

As to `CC1C2CC(C(S(=O)(=O)O)C2=O)C1(C)C` (stereo not drawn), the TGI is more than 100 µM.

On to `CN(C)/C=C/C(=CC=[N+](C)C)/C=C/N(C)C`, for which the TGI was more than 100 µM.

For the compound `CNC1(c2cc3ccccc3s2)CCCCC1`, the TGI was found to be 39.7 µM.

Turning to `N#C[S-].[La+3].c1cnc2c(c1)ccc1cccnc12.c1cnc2c(c1)ccc1cccnc12.c1cnc2c(c1)ccc1cccnc12`, the TGI is 11.7 µM.

`CNc1ncccc1Nc1cc(=O)n2c3cccnc3n(C)c2c1` showed a TGI of more than 100 µM.

On to `CC1(C)C2CCC1(C)C(N/C(Sc1ccccc1)=C(/C(Cl)=C(Cl)Cl)[N+](=O)[O-])C2` (stereo not drawn), for which the TGI is 26.9 µM.

Take `COC(=O)[C@@H]1C[C@H]2OC(=O)CC[C@]2(C)O[C@H]1[C@H]1O[C@@](C)(O)CCC[C@H]1C`: the TGI is more than 50 µM.

With `O=S(Cc1ccccc1)c1nc2ccccc2nc1-c1cccs1` (stereo not drawn), the TGI stood at 23.4 µM.

For `CN(/N=C/c1ccc(C(=O)O)cc1)C1=NCCCCN1`, the TGI is more than 100 µM.

As for `C=C(C)C1CCC(C(=O)O)CC1` (stereo not drawn), the TGI is more than 100 µM.

Compound `Cc1c(N2C(=O)C(Cl)C2/C=C/c2ccccc2)c(=O)n(-c2ccccc2)n1C` (stereo not drawn) gave a TGI of 67.1 µM.

Regarding `O=c1[nH]c2cc(C(F)(F)F)ccc2nc1C(F)(F)F`, the TGI was more than 100 µM.

In turn, `C=CC[C@]1(/C=N/O)CN(S(=O)(=O)CC[Si](C)(C)C)C[C@H]2CC=CC[C@H]21` returned a TGI of 32.5 µM.

`CCOC(=O)Nc1cc2c(c(N)n1)N=C(c1ccc(OC)cc1)CN2` showed a TGI of 1.9 µM.

With `CCN1C[C@]2(C)CC[C@H](O)C34C1C(C[C@@H]32)[C@@]1(O)CC[C@H]2C[C@@H]4[C@@H]1[C@H]2O`, the TGI was more than 100 µM.

`CCC(CC)NC1=C(NC(C)=O)C(=O)c2ccccc2C1=O` displayed a TGI of more than 50 µM.

For `COc1ccc(-c2c(C(C)=O)c(-c3ccccc3)n(C3OC(CO)C(O)C(O)C3O)c(=S)c2C#N)cc1` (stereo not drawn), the TGI was more than 100 µM.

In turn, `CCCCCCCC(CC(=O)NC(CO)C(=O)NC(CO)CC(C)C)OC(=O)CC(CCCCCCC)OC(=O)CC(CCCCCCC)OC1OC(C)C(O)C(OC2OC(C)C(OC(C)=O)C(O)C2O)C1O` (stereo not drawn) yielded a TGI of 18.5 µM.

`O=C1C2=Cc3ccccc3OC2(O)Oc2cc3ccccc3cc21` (stereo not drawn): the TGI is more than 100 µM.

In turn, `CC1(c2cccc(C3CC4(CCC3=O)OCCCCO4)c2)OCCO1` (stereo not drawn) had a TGI of more than 100 µM.

Another test concerns ACHN renal. The test can be described thus: NCI anticancer screen, dose series, 48 h.
Compound `CC1(C)OCN(c2ccc(N3CCOCC3)cc2)Cn2c1nc1ccccc12` yielded a TGI of more than 100 µM.

On to `CC1C2CC(C(S(=O)(=O)O)C2=O)C1(C)C` (stereo not drawn), for which the TGI was more than 100 µM.

Take `CN(C)/C=C/C(=CC=[N+](C)C)/C=C/N(C)C`: the TGI is more than 100 µM.

As for `CNC1(c2cc3ccccc3s2)CCCCC1`, the TGI is more than 100 µM.

As for `N#C[S-].[La+3].c1cnc2c(c1)ccc1cccnc12.c1cnc2c(c1)ccc1cccnc12.c1cnc2c(c1)ccc1cccnc12`, the TGI turned out to be 12.9 µM.

`CNc1ncccc1Nc1cc(=O)n2c3cccnc3n(C)c2c1` showed a TGI of more than 100 µM.

Compound `CC1(C)C2CCC1(C)C(N/C(Sc1ccccc1)=C(/C(Cl)=C(Cl)Cl)[N+](=O)[O-])C2` (stereo not drawn) came in with a TGI of 26.3 µM.

As for `COC(=O)[C@@H]1C[C@H]2OC(=O)CC[C@]2(C)O[C@H]1[C@H]1O[C@@](C)(O)CCC[C@H]1C`, the TGI is more than 50 µM.

Compound `O=S(Cc1ccccc1)c1nc2ccccc2nc1-c1cccs1` (stereo not drawn) registered a TGI of 26.9 µM.

Compound `CN(/N=C/c1ccc(C(=O)O)cc1)C1=NCCCCN1` registered a TGI of more than 100 µM.

For `C=C(C)C1CCC(C(=O)O)CC1` (stereo not drawn), the TGI was more than 100 µM.

In the case of `Cc1c(N2C(=O)C(Cl)C2/C=C/c2ccccc2)c(=O)n(-c2ccccc2)n1C` (stereo not drawn), the TGI was 45.6 µM.

In turn, `O=c1[nH]c2cc(C(F)(F)F)ccc2nc1C(F)(F)F` displayed a TGI of more than 100 µM.

Turning to `CCOC(=O)Nc1cc2c(c(N)n1)N=C(c1ccc(OC)cc1)CN2`, the TGI is 35.7 µM.

Take `CCN1C[C@]2(C)CC[C@H](O)C34C1C(C[C@@H]32)[C@@]1(O)CC[C@H]2C[C@@H]4[C@@H]1[C@H]2O`: the TGI is more than 100 µM.

For `CCC(CC)NC1=C(NC(C)=O)C(=O)c2ccccc2C1=O`, the TGI was more than 50 µM.

Take `COc1ccc(-c2c(C(C)=O)c(-c3ccccc3)n(C3OC(CO)C(O)C(O)C3O)c(=S)c2C#N)cc1` (stereo not drawn): the TGI is more than 100 µM.

`CCCCCCCC(CC(=O)NC(CO)C(=O)NC(CO)CC(C)C)OC(=O)CC(CCCCCCC)OC(=O)CC(CCCCCCC)OC1OC(C)C(O)C(OC2OC(C)C(OC(C)=O)C(O)C2O)C1O` (stereo not drawn) registered a TGI of 29.2 µM.

Take `O=C1C2=Cc3ccccc3OC2(O)Oc2cc3ccccc3cc21` (stereo not drawn): the TGI is more than 100 µM.

Compound `CC1(c2cccc(C3CC4(CCC3=O)OCCCCO4)c2)OCCO1` (stereo not drawn) displayed a TGI of more than 100 µM.

A further test has as its system SF-295 CNS. The test is described as follows: NCI anticancer screen, dose series, 48 h.
The compound `CC1(C)OCN(c2ccc(N3CCOCC3)cc2)Cn2c1nc1ccccc12` gave a TGI of more than 100 µM.

Regarding `CC1C2CC(C(S(=O)(=O)O)C2=O)C1(C)C` (stereo not drawn), the TGI is more than 100 µM.

Compound `CN(C)/C=C/C(=CC=[N+](C)C)/C=C/N(C)C` registered a TGI of more than 100 µM.

`CNC1(c2cc3ccccc3s2)CCCCC1` returned a TGI of more than 100 µM.

The compound `N#C[S-].[La+3].c1cnc2c(c1)ccc1cccnc12.c1cnc2c(c1)ccc1cccnc12.c1cnc2c(c1)ccc1cccnc12` displayed a TGI of 7.94 µM.

With `CNc1ncccc1Nc1cc(=O)n2c3cccnc3n(C)c2c1`, the TGI was more than 100 µM.

Turning to `CC1(C)C2CCC1(C)C(N/C(Sc1ccccc1)=C(/C(Cl)=C(Cl)Cl)[N+](=O)[O-])C2` (stereo not drawn), the TGI was found to be 27.7 µM.

As for `COC(=O)[C@@H]1C[C@H]2OC(=O)CC[C@]2(C)O[C@H]1[C@H]1O[C@@](C)(O)CCC[C@H]1C`, the TGI was more than 50 µM.

`O=S(Cc1ccccc1)c1nc2ccccc2nc1-c1cccs1` (stereo not drawn): the TGI was determined as 52.9 µM.

Regarding `CN(/N=C/c1ccc(C(=O)O)cc1)C1=NCCCCN1`, the TGI is more than 100 µM.

`C=C(C)C1CCC(C(=O)O)CC1` (stereo not drawn) returned a TGI of more than 100 µM.

Consider `Cc1c(N2C(=O)C(Cl)C2/C=C/c2ccccc2)c(=O)n(-c2ccccc2)n1C` (stereo not drawn), for which the TGI amounted to 48.1 µM.

On to `O=c1[nH]c2cc(C(F)(F)F)ccc2nc1C(F)(F)F`, for which the TGI is more than 100 µM.

`C=CC[C@]1(/C=N/O)CN(S(=O)(=O)CC[Si](C)(C)C)C[C@H]2CC=CC[C@H]21` registered a TGI of 31 µM.

In the case of `CCN1C[C@]2(C)CC[C@H](O)C34C1C(C[C@@H]32)[C@@]1(O)CC[C@H]2C[C@@H]4[C@@H]1[C@H]2O`, the TGI is more than 100 µM.

As for `CCC(CC)NC1=C(NC(C)=O)C(=O)c2ccccc2C1=O`, the TGI was more than 50 µM.

Regarding `COc1ccc(-c2c(C(C)=O)c(-c3ccccc3)n(C3OC(CO)C(O)C(O)C3O)c(=S)c2C#N)cc1` (stereo not drawn), the TGI is more than 100 µM.

Compound `CCCCCCCC(CC(=O)NC(CO)C(=O)NC(CO)CC(C)C)OC(=O)CC(CCCCCCC)OC(=O)CC(CCCCCCC)OC1OC(C)C(O)C(OC2OC(C)C(OC(C)=O)C(O)C2O)C1O` (stereo not drawn) registered a TGI of 24.3 µM.

`O=C1C2=Cc3ccccc3OC2(O)Oc2cc3ccccc3cc21` (stereo not drawn) gave a TGI of more than 100 µM.

`CC1(c2cccc(C3CC4(CCC3=O)OCCCCO4)c2)OCCO1` (stereo not drawn) registered a TGI of more than 100 µM.

The next test concerns A498 renal. The test is described as follows: NCI anticancer screen, dose series, 48 h.
In the case of `CC1(C)OCN(c2ccc(N3CCOCC3)cc2)Cn2c1nc1ccccc12`, the TGI was more than 100 µM.

`CC1C2CC(C(S(=O)(=O)O)C2=O)C1(C)C` (stereo not drawn) registered a TGI of more than 100 µM.

The record behind these values is PubChem BioAssay (NCI).
